We go through 6 compounds from PubChem BioAssay AID1918948 (Molecular Pharmacology Branch, DTP, NCI, 2023).

SMILES strings stand for the structures. pIC50: −log10 of the molar value. Values joined by “and” are separate entries in the source; they are usually repeats but may differ in a detail not shown here. Equal values may be shown once. Bounds are passed on as bounds.

The test system of the experiment is K-562 leukemia growth, % test/control. Put plainly: Anticancer human tumor K-562 cell line growth inhibition.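 On all read-outs here: spheroids exposed to compounds for 7 days.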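 On viability, T/C: 100% = DMSO vehicle wells and lower values mean fewer viable cells.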 Particulars: spheroids with HUVEC and MSC; for viability, T/C: stronger effect = lower value. The source says:
Multicellular complex tumor spheroid response to LSD1 Inhibitor Iadademstat in combination with a variety of drugs and investigational agents in selected tumor cell lines
The current study was undertaken to assess response to LSD1 inhibitors in combination with standard-of-care drugs and investigational agents in solid tumor complex spheroid models as well as in the K-562 leukemia. Complex spheroids include a stromal component modeled by human endothelial cells (HUVEC) and fibroblasts modeled by human mesenchymal stem cells (MSCs). The concentration ranges selected for each drug and investigational agent were based upon clinically achievable concentrations if the clinical Cmax of the agent was known.
Compounds. The drugs and investigational agents used in this study are listed on Table 1. All of the agents used, including staurosporine (NSC755774) and gemcitabine (NSC613327), were obtained from the Developmental Therapeutics Program, NCI. FDA-approved anticancer drugs are available from the NCI at http://dtp.nci.nih.gov/branches/dscb/oncology_drugset_explanation.html. Drugs and investigational agents were >95% pure by proton nuclear magnetic resonance (NMR) and liquid chromatography/mass spectrometry (LC/MS). Stock solutions were prepared at 400x in DMSO, stored at -70 degrees C, and diluted in fresh medium prior to their use. The final concentration of DMSO in cell culture wells never exceeded 0.25% (v/v). The FDA-approved anticancer drug set is available from the Developmental Therapeutics Program at https://dtp.cancer.gov/organization/dscb/obtaining/available_plates.htm. All drugs and investigational agents were tested over a range starting from a high concentration at or near the clinical Cmax and decreasing in half-log increments. If the clinical Cmax for an agent had not been determined, the highest concentration tested was 10 microM.
Cell Lines. The patient-derived cancer cell (PDC) lines: 292921-168-R-J2-PDC, K24384-001-R-PDC, and 521955-158-R2-J5-PDC pancreatic carcinomas, 556581-035-R-J1 ovarian carcinoma, 324938-238-R-J1-PDC, 855422-203-R-J1-PDC and 883617-216-R-J1-PDC urothelial bladder carcinomas, 743489-274-T-PDC renal cell carcinoma, 138582-R-J1 Merkel cell tumor, K60290-347-R-J1 and K57222-313-R-J1-PDC glioblastomas, 653999-131-R-J2-PDC, LG0703-F948-PDC, and 349418-098-R-PDC non-small cell lung carcinomas, 885512-296-R-J2-PDC, 171881-019-R-J1-PDC breast carcinomas and 186277-243-T-J2-PDC and 233499-124-R-J2-PDC colon carcinomas were obtained from the NCI Patient-Derived Models Repository (PDMR, https://pdmr.cancer.gov). The established cell lines NCI/ADR-RES (RRID:CVCL_14520 and OVCAR-5 (RRID:CVCL_1628) ovarian carcinomas, 786-O (RRID:CVCL_1051) and A498 (RRID:CVCL_A498) renal cell carcinoma, NCI-H211 (ATCC, cat. CRL-5824; RRID:CVCL_1529), NCI-H196 (ATCC, cat. CRL-5823, RRID:CVCL_1509), SW 1271 (ATCC, cat. CRL-2177, RRID:CVCL_1716) and NCI-H1876 (ATCC, cat. CRL-5902, RRID:CVCL_1503) small cell lung carcinomas, MDA-MB-231 (RRID:CVCL_0062) and MDA-MB-468 (RRID:CVCL_0419)breast carcinomas (10-12). Pooled donor human umbilical vein endothelial cells (HUVEC, Lonza, cat. CC-2519) and human mesenchymal stem cells (hMSC, Lonza, cat. PT-2501) were purchased from Lonza (Walkersville, MD).
Cell Culture. All cells were maintained in an incubator at 37 degrees C and 5% CO2 with 95% humidity. The PDC lines were cultured according to standard operating procedures established by the NCI PDMR (https://pdmr.cancer.gov). Briefly all PDCs were thawed and cultured in Matrigel-coated flasks prepared with a working solution of 1X Ham's F-12 nutrient mix, without supplementation (Invitrogen, Waltham, MA, cat. 11765054), 100 U/mL penicillin-streptomycin (Invitrogen, cat. 15140122), and 2.5% Matrigel (Corning Inc., Corning, NY, cat. 354248) for the first three passages. […]

In general, pIC50 refers to the IC50 on a negative log10 scale, so that one unit is a factor of ten. In general, viability, T/C refers to the ratio of treated to control.

For `CCc1c2c(nc3ccc(O)cc13)-c1cc3c(c(=O)n1C2)COC(=O)[C@]3(O)CC` + NC1CCC(NC2CC2c2ccccc2)CC1, the pIC50 reads like this: (curve of first compound, second compound 0.1 µM) > 9.02; (curve of first compound, second compound 0.316 µM) > 9.02; (curve of first compound, second compound 1 µM) > 9.02; (curve of first compound, second compound 3.16 µM) > 9.02; (curve of first compound, second compound 10 µM) > 9.02. Moreover, the viability, T/C was 5.18% (second compound 0.1 µM, first compound 0.000949 µM); 3.15% (second compound 0.1 µM, first compound 0.003 µM); 1.66% (second compound 0.1 µM, first compound 0.00949 µM); 1.09% (second compound 0.1 µM, first compound 0.03 µM); 0.45% (second compound 0.1 µM, first compound 0.0949 µM); 0.5% (second compound 0.1 µM, first compound 0.3 µM). Moreover, the viability, T/C reads like this: (second compound 0.316 µM, first compound 0.000949 µM) 5.49%; (second compound 0.316 µM, first compound 0.003 µM) 3.06%; (second compound 0.316 µM, first compound 0.00949 µM) 1.72%; (second compound 0.316 µM, first compound 0.03 µM) 2.09%; (second compound 0.316 µM, first compound 0.0949 µM) 0.56%; (second compound 0.316 µM, first compound 0.3 µM) 0.51%. Further, the viability, T/C runs as follows: (second compound 1 µM, first compound 0.000949 µM) 5.31%; (second compound 1 µM, first compound 0.003 µM) 3.05%; (second compound 1 µM, first compound 0.00949 µM) 1.8%; (second compound 1 µM, first compound 0.03 µM) 1.24%; (second compound 1 µM, first compound 0.0949 µM) 1.88%; (second compound 1 µM, first compound 0.3 µM) 0.5%. Also, the viability, T/C runs as follows: (second compound 3.16 µM, first compound 0.000949 µM) 5.35%; (second compound 3.16 µM, first compound 0.003 µM) 3.03%; (second compound 3.16 µM, first compound 0.00949 µM) 1.7%; (second compound 3.16 µM, first compound 0.03 µM) 1.4%; (second compound 3.16 µM, first compound 0.0949 µM) 0.45%; (second compound 3.16 µM, first compound 0.3 µM) 0.47%. Moreover, the viability, T/C is, setting by setting: (second compound 10 µM, first compound 0.000949 µM) 4.28%; (second compound 10 µM, first compound 0.003 µM) 2.29%; (second compound 10 µM, first compound 0.00949 µM) 1.7%; (second compound 10 µM, first compound 0.03 µM) 1.31%; (second compound 10 µM, first compound 0.0949 µM) 0.58%; (second compound 10 µM, first compound 0.3 µM) 2.36%.

Turning to `COc1cc(Nc2ncc3c(n2)-c2ccc(Cl)cc2C(c2c(F)cccc2OC)=NC3)ccc1C(=O)O`, the viability, T/C was 83.3% and 43.7% (compound 0.00316 µM); 41.7% and 44.3% (compound 0.01 µM); 40% and 40.6% (compound 0.0316 µM); 39.9% and 40.8% (compound 0.1 µM); 37.6% and 11.2% (compound 0.316 µM). The pIC50 (curve of compound) was 8.10 and > 8.50.

Regarding `CC1(C)CCC(CN2CCN(c3ccc(C(=O)NS(=O)(=O)c4ccc(NCC5CCOCC5)c([N+](=O)[O-])c4)c(Oc4cnc5[nH]ccc5c4)c3)CC2)=C(c2ccc(Cl)cc2)C1`, the viability, T/C is 102% and 101% (compound 0.0316 µM); 103% and 107% (compound 0.1 µM); 100% and 108% (compound 0.316 µM); 109% and 117% (compound 1 µM); 117% and 75.7% (compound 3.16 µM). The pIC50 (curve of compound) was 5.12 and 5.33.

Consider `COc1ccc([C@@H](O)c2cc(-c3ncnc4cc(N5CCOCC5)ccc34)c(F)cc2Cl)nn1`, for which the viability, T/C by setting is: (compound 0.0316 µM) 100% and 102%; (compound 0.1 µM) 104% and 98.7%; (compound 0.316 µM) 97% and 95.4%; (compound 1 µM) 96.4% and 97%; (compound 3.16 µM) 104% and 99.9%; (compound 10 µM) 40% and 38.6%. In addition, where the note is “curve of compound”, the pIC50 is 5.08 and 5.10.

With `Nc1ncn(C2CC(O)C(CO)O2)c(=O)n1` (configuration not stated), the viability, T/C reads like this: (compound 0.00316 µM) 94.7% and 99.7%; (compound 0.01 µM) 93.9% and 96.9%; (compound 0.0316 µM) 88.5% and 96.1%; (compound 0.1 µM) 79.7% and 89.2%; (compound 0.316 µM) 72.3% and 74.6%; (compound 1 µM) 67.1% and 75.9%. For the same compound, the pIC50 (curve of compound) was < 6.00.

With `CC(C)CC(NC(=O)C(Cc1ccccc1)NC(=O)c1cnccn1)B(O)O` (configuration not stated), the viability, T/C was 98.7% and 102% (compound 0.000316 µM); 18.8% and 1.3% (compound 0.00316 µM); 1.39% and 0.58% (compound 0.01 µM); 1.89% and 0.51% (compound 0.0316 µM); 3.68% and 0.49% (compound 0.1 µM). Further, the pIC50 (curve of compound) is 8.70 and 9.23.
